Measured values: patent US20200087326A1, “DEEP RED FLUORESCENT PROBE” (The University of Tokyo, priority 2016, published 2020)

Columns and labels:
[1] = Absorption and fluorescence spectra (photophysical properties) of compounds A-C in solutions of various Ca^2+ concentrations; type: physicochemical; conditions: 1 μM compound, pH 7.2 MOPS
Protocol: To investigate whether the synthesized compounds A, B, and C can function as Ca^2+ probes, the absorption and fluorescence spectra were measured in solutions of various Ca^2+ concentrations. FIG. 7 represents the absorption spectra (left), emission spectra (center), and fluorescence spectra (right) of 1 μM of compounds A, B, and C in the presence of various concentrations (0, 0.017, 0.038, 0.065, 0.100, 0.150, 0.225, 0.351, […]) of free Ca^2+ in pH 7.2 30 mM 3-(N-morpholino)propanesulfonic acid (MOPS) containing […] and […] (EGTA). The excitation wavelengths were 646 nm (A), 648 nm (B), and 635 nm (C).

[2] = Evaluation of compounds A-C as Ca^2+ probes (fluorescence intensity vs free Ca^2+); type: binding
Protocol: To investigate whether the synthesized compounds A, B, and C can function as Ca^2+ probes, the absorption and fluorescence spectra were measured in solutions of various Ca^2+ concentrations. FIG. 7 represents the absorption spectra (left), emission spectra (center), and fluorescence spectra (right) of 1 μM of compounds A, B, and C in the presence of various concentrations ([…])propanesulfonic acid (MOPS) containing […] and […] (EGTA). The excitation wavelengths were 646 nm (A), 648 nm (B), and 635 nm (C).

[3] = In 0 μM free [Ca^2+] buffer (absence of Ca^2+)
[4] = 39 μM vs 0 μM free [Ca^2+] buffer

Structure (SMILES)	Φfl [1, 3]	λabs ([1]; In 0 μM free [Ca^2+] buffer) [nm]	λfl ([1]; In 0 μM free [Ca^2+] buffer) [nm]	Φfl ([1]; In 39 μM free [Ca^2+] buffer)	λabs ([1]; In 39 μM free [Ca^2+] buffer) [nm]	λfl ([1]; In 39 μM free [Ca^2+] buffer) [nm]	Activation Ratio [2, 4]	Activation Ratio ([2]; with vs without Ca^2+) [fold]
Cc1ccc(N(CC(=O)O)CC(=O)O)c(OCCOc2cc(NC(=O)C/[N+](C)=C3/C=CC4=C(c5ccccc5C(=O)[O-])c5ccc(N(C)C)cc5[Si](C)(C)C4=C3)ccc2N(CC(=O)O)CC(=O)O)c1 [Compound C]	0.01	637	664	0.26	636	661	×26	26
Cc1ccc(N(CC(=O)O)CC(=O)O)c(OCCOc2cc(NC(=O)c3ccc(C(=O)O)c(C4=C5C=CC(=[N+](C)C)C=C5[Si](C)(C)c5cc(N(C)C)ccc54)c3)ccc2N(CC(=O)O)CC(=O)O)c1 [Compound B]	0.04	648	671	0.29	647	672	×7.3	–
Cc1ccc(N(CC(=O)O)CC(=O)O)c(OCCOc2cc(NC(=O)c3ccc(C4=C5C=CC(=[N+](C)C)C=C5[Si](C)(C)c5cc(N(C)C)ccc54)c(C(=O)O)c3)ccc2N(CC(=O)O)CC(=O)O)c1 [Compound A]	0.10	646	673	0.25	646	674	×2.5	2.5
